Patent US6455528B1, “Piperazine compounds and medicinal use thereof” (Mitsubishi Pharma Corporation, priority 1997, dated 2002)

Key:
TNF-α production = experiment: Effect on TNF-α production in mice (in vivo), LPS-induced; conditions: serum TNF-α 90 min after LPS 500 μg/kg i.p.; test compound orally 30 min before LPS; ratio relative to test compound non-administration group
Experimental: (§1) Since the TNF-α concentration in serum reaches a peak at 90 min after LPS administration, the TNF-α concentration in the serum at this point was measured using FACTOR TEST mTNF-α (manufactured by Genzyme) and the IL-10 concentration at the same point of time was also measured using Murine IL-10 ELISA Kit (manufactured by Endogen). […] The effect of the test compound on the TNF-α production and IL-10 production was calculated by the following formula as the ratio relative to the test compound non-administration group.

IL-10 production = experiment: Effect on IL-10 production in mice (in vivo), LPS-induced; conditions: serum IL-10 90 min after LPS 500 μg/kg i.p.; test compound orally 30 min before LPS; ratio relative to test compound non-administration group
Experimental: as §1

Structure (SMILES) | TNF-α production (%) (TNF-α production) | IL-10 production (%) (IL-10 production) | melting point
CC(=O)NC(C)c1ccc(CN2CCN(c3ccc(F)cc3)CC2)cc1 (stereo not drawn) [Example 48, N-(1-(4-((4-(4-Fluorophenyl)piperazin-1-yl)methyl)phenyl)ethyl)acetamide] | 12% | 888% | 101 to 103 °C
CC(=O)NC(C)(C)c1ccc(CN2CCN(c3ccc(F)cc3)CC2)cc1 [Example 51, N-(1-Methyl-1-(4-((4-(4-fluorophenyl)-piperazin-1-yl)methyl)phenyl)ethyl)acetamide] | 16% | 533% | 104.5 to 106 °C
CC(=O)NCc1ccc(CN2CCN(c3ncccn3)CC2)cc1 [Example 72, N-(4-((4-(Pyrimidin-2-yl)piperazin-1-yl)methyl)phenylmethyl)acetamide] | 20% | 510% | 120 to 121 °C
CC(=O)NCc1ccc(CN2CCN(c3ccccn3)CC2)cc1 [Example 82, N-(4-((4-(Pyridin-2-yl)piperazin-1-yl)methyl)phenylmethyl)acetamide] | 11% | 742% | 100 to 101 °C
